We go through 10 compounds from ChEMBL document CHEMBL1201862, “PubChem BioAssay data set” (2004).

The target in assay [1] is 5-hydroxytryptamine receptor 1A (Homo sapiens, UniProt P08908). The class given is functional.
A short description of assay [2]: Luminescent dose response cell-based high throughput screening assay for inhibitors of the Janus kinase 2 mutant JAK2V617F. [Related pubchem assays: 1446 (Primary screen.), 1521 (Confirmation assay.), 1486 (Counter screen.)]. In kind it is functional. (In general: The purpose of a counterscreen is to sort out artefacts and off-target activity.)
A further assay concerns INS1. Description: INS-1E survival protection against cytokine death – cell-based, luminescence, retest, dose response (AID 449756).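 Note: cell death triggered by IL-1 beta plus TNF-alpha plus IFN-gamma mixture; protective hits raise ATP signal compared with cytokine alone wells.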 In kind it is functional. To be noted: Rattus norvegicus.
Assay [3] addresses Diphosphomevalonate decarboxylase (Streptococcus pneumoniae serotype 2 (strain D39 / NCTC 7466), UniProt Q9FD53). In words: diphosphomevalonate decarboxylase inhibitor confirmation – biochemical, cuvette format, coupled NADH fluorescence (AID 1028). The class given is functional.
Assay [4] is described as follows: HEK-293T viability loss after treatment – luminescence, T-cell screen hits, cytotoxicity control for TCR NF-kB inhibitor project, dose response (AID 489026).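 Note: cells exposed to compound about 14 hours before the viability readout.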 In kind it is functional, cell-based.
The subject of a further assay is Vero. Description: mammalian cell viability reduction – secondary assay, cytotoxicity control for West Nile virus antiviral project, dose response (AID 1650). The class given is functional. The note with it: Chlorocebus sabaeus.
Assay [5] deals with Induced myeloid leukemia cell differentiation protein Mcl-1 (Homo sapiens, UniProt Q07820). In kind it is functional.
Assay [6] concerns Streptococcus sp. 'group A'. Description: Streptococcus pyogenes SK(-)GAS viability under kanamycin – luminescence, BacTiterGlo, confirmation, counter-screen for streptokinase expression inhibitor project, dose response (AID 1900). In kind it is functional, organism-based.
Assay [7] has as its target T1, Zinc finger protein mex-5 (Caenorhabditis elegans, UniProt Q9XUB2).
T1 sequence (Q9XUB2 whole entry): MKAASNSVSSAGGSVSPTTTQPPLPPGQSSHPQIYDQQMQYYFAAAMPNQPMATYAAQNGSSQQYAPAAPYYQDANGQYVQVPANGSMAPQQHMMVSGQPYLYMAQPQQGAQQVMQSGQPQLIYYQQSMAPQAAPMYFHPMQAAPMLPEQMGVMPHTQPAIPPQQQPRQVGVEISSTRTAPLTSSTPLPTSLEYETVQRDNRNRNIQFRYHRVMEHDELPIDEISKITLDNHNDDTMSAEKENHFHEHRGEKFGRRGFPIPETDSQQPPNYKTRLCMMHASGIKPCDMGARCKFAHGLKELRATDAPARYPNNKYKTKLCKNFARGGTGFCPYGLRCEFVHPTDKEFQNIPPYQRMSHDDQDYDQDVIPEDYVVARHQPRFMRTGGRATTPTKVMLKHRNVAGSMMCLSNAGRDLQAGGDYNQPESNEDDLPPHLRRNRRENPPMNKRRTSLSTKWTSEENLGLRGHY
In words: potency of MEX-5 RNA-binding blockers – biochemical, C. elegans, fluorescence polarization, dose response (AID 1960).

The test system of the next assay is Streptococcus. Description: GAS UMAA2166 growth inhibition – luminescence, BacTiterGlo, counter-screen for streptokinase expression inhibitor project, dose response (AID 1915).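 Note: potency for reduction of bacterial viability or growth.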 The class given is functional, organism-based.
Assay [8] concerns the target T2, RNA-binding protein pos-1 (Caenorhabditis elegans, UniProt G5EF15).
T2 sequence (G5EF15 whole entry): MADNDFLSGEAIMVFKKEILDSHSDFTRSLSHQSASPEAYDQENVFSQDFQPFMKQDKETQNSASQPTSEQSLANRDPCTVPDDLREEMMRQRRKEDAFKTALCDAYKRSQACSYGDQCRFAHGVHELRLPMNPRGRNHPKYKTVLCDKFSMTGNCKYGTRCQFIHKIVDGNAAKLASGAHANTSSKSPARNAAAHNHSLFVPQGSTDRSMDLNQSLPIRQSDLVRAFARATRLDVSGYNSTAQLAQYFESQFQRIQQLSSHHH
Description: disruptors of C. elegans POS-1 RNA interaction – biochemical, fluorescence polarization, dose response (AID 1964).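 Note: purified POS-1 fused to maltose binding protein made in E. coli; potency of compounds blocking POS-1 binding to fluorescent RNA.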 For orientation: Polarisation of emitted light reports the rotation of a fluorescent probe.

For a further assay, the target named is T3, Streptokinase A (Streptococcus pyogenes serotype M1, UniProt P10520).
T3 sequence (P10520 whole entry): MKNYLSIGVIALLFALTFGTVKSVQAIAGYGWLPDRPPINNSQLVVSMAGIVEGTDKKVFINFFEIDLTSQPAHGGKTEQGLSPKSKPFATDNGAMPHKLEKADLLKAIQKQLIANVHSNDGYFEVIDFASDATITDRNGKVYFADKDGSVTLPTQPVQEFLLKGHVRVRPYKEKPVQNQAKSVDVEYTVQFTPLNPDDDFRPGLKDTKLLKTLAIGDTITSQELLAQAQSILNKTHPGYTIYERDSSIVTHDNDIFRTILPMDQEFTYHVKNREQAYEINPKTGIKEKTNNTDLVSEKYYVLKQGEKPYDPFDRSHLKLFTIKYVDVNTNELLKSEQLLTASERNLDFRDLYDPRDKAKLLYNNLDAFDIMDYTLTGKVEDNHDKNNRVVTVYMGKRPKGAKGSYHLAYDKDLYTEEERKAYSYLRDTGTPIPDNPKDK
In words: viability-normalized secreted streptokinase activity reduction – plasminogen activation absorbance, OD405, dose response (AID 1914).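 Note: secreted streptokinase activity via plasminogen activation per viability signal from cell pellet.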 The class given is functional, Streptococcus pyogenes M1 GAS.

The target of assay [9] is Bifunctional protein GlmU (Mycobacterium tuberculosis, UniProt P9WMN3). Description: Inhibitors of Mycobacterial Glucosamine-1-phosphate acetyl transferase (GlmU). Secondary screen. The arrangement: species or system Mycobacterium tuberculosis H37Rv.
Assay [10] addresses T4, Fatty acid synthase (Homo sapiens, UniProt P49327). Description: inhibition of human FAS-TE enzyme activity – biochemical, kinetic fluorescence intensity, dose response (AID 624326).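 Note: rate of fluorescence rise from hydrolysis of a fluorogenic O-methyl fluorescein ester substrate.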 In kind it is functional.
Assay [11] concerns the target T4, Fatty acid synthase. In words: inhibition of human FAS-TE enzyme activity – biochemical, endpoint fluorescence intensity, uHTS hits, dose response (AID 624327).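 Note: fluorescence from hydrolysis of an O-methyl fluorescein acyl ester substrate by the enzyme.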 In kind it is functional.
Another assay concerns the target Genome polyprotein (Hepatitis C virus, UniProt Q2Q167). Description: disruption of hepatitis C core self-association – biochemical, TR-FRET, dose response (AID 2159).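 Note: blocks dimerization of HCV core protein measured by TR-FRET between tagged core106 pairs.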 On the set-up: species or system Hepacivirus hominis.
For assay [12], the target named is Voltage-gated inwardly rectifying potassium channel KCNH2 (Homo sapiens, UniProt Q12809). In words: concentration-dependent hERG rescue from blockers – cell-based, thallium flux, dose response (AID 2121). In kind it is ADME. In general terms: The hERG channel carries a current that helps repolarise heart muscle cells.
Assay [13] has as its target T5, Tyrosine-protein phosphatase non-receptor type 7 (Homo sapiens, UniProt P35236).
T5 sequence (P35236 whole entry): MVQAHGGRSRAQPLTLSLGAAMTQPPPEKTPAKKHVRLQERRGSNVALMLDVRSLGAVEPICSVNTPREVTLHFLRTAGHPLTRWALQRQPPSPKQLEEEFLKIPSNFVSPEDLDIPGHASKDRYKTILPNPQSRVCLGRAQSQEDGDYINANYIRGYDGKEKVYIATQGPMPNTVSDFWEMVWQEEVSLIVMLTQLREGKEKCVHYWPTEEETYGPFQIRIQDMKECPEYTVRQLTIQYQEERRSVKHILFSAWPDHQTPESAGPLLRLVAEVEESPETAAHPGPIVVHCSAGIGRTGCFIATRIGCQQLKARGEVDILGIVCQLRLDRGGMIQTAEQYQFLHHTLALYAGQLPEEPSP
In words: HePTP tyrosine phosphatase activity blockers – biochemical, absorbance, leukemia target, primary screen (AID 521). In kind it is functional.

Assay [14] addresses Transitional endoplasmic reticulum ATPase (Homo sapiens, UniProt P55072). In words: Luminescence dose response biochemical high throughput screening assay for inhibitors of the p97 ATPase: synthesized compounds. [Related pubchem assays: 1481, 1517 ].
The target of assay [15] is Transitional endoplasmic reticulum ATPase (Homo sapiens, UniProt P55072, C522A). In words: Luminescence counterscreen assay for p97 inhibitors: dose response biochemical high throughput screening assay to identify inhibitors of the C522A mutant p97 ATPase: synthesized compounds. [Related pubchem assays: 1481, 1517, 1551 ].
Assay [16] addresses Protein-tyrosine kinase 2-beta (Homo sapiens, UniProt Q14289).
Assay [17] addresses T6, Dual specificity protein phosphatase 6 (Rattus norvegicus, UniProt Q64346).
T6 sequence (Q64346 whole entry): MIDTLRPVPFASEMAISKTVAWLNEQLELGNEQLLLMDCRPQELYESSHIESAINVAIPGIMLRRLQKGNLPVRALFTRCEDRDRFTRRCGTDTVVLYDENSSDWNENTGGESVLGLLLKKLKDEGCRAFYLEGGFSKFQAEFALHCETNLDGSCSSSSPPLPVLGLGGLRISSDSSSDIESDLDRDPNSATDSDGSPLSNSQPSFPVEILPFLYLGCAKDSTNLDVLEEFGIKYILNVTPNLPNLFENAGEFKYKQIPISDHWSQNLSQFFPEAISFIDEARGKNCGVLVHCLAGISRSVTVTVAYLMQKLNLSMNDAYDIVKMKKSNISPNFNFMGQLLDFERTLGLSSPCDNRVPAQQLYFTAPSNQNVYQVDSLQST
In words: inhibition of rat DUSP6 enzyme activity – biochemical, in vitro, primary screen (AID 425).

Assay [18] deals with Mitogen-activated protein kinase 10 (Homo sapiens, UniProt P53779). In words: Dose response biochemical screening assay for inhibitors of c-Jun N-Terminal Kinase 3 (JNK3). [Related pubchem assays: 746 ].
Assay [19] is described as follows: viability of PTEN-deleted HCT116 cells – cell-based, HCT116 PTEN knockout, dose response (AID 1047).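 Note: HCT116 colon tumor cells with PTEN knocked out; cells exposed to compound for 60 hours before readout; potency for loss of cell viability measured by luminescence.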 In kind it is functional.
A short description of assay [20]: viability of HCT116 lacking mutant beta-catenin – cell-based, human colon tumor, dose response (AID 1045).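 Note: HCT116 colon tumor cells with beta catenin knocked out; cells exposed to compound for 60 hours.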 The class given is functional.

Calls of active or inactive are those of the source.

T4 sequence (P49327 whole entry): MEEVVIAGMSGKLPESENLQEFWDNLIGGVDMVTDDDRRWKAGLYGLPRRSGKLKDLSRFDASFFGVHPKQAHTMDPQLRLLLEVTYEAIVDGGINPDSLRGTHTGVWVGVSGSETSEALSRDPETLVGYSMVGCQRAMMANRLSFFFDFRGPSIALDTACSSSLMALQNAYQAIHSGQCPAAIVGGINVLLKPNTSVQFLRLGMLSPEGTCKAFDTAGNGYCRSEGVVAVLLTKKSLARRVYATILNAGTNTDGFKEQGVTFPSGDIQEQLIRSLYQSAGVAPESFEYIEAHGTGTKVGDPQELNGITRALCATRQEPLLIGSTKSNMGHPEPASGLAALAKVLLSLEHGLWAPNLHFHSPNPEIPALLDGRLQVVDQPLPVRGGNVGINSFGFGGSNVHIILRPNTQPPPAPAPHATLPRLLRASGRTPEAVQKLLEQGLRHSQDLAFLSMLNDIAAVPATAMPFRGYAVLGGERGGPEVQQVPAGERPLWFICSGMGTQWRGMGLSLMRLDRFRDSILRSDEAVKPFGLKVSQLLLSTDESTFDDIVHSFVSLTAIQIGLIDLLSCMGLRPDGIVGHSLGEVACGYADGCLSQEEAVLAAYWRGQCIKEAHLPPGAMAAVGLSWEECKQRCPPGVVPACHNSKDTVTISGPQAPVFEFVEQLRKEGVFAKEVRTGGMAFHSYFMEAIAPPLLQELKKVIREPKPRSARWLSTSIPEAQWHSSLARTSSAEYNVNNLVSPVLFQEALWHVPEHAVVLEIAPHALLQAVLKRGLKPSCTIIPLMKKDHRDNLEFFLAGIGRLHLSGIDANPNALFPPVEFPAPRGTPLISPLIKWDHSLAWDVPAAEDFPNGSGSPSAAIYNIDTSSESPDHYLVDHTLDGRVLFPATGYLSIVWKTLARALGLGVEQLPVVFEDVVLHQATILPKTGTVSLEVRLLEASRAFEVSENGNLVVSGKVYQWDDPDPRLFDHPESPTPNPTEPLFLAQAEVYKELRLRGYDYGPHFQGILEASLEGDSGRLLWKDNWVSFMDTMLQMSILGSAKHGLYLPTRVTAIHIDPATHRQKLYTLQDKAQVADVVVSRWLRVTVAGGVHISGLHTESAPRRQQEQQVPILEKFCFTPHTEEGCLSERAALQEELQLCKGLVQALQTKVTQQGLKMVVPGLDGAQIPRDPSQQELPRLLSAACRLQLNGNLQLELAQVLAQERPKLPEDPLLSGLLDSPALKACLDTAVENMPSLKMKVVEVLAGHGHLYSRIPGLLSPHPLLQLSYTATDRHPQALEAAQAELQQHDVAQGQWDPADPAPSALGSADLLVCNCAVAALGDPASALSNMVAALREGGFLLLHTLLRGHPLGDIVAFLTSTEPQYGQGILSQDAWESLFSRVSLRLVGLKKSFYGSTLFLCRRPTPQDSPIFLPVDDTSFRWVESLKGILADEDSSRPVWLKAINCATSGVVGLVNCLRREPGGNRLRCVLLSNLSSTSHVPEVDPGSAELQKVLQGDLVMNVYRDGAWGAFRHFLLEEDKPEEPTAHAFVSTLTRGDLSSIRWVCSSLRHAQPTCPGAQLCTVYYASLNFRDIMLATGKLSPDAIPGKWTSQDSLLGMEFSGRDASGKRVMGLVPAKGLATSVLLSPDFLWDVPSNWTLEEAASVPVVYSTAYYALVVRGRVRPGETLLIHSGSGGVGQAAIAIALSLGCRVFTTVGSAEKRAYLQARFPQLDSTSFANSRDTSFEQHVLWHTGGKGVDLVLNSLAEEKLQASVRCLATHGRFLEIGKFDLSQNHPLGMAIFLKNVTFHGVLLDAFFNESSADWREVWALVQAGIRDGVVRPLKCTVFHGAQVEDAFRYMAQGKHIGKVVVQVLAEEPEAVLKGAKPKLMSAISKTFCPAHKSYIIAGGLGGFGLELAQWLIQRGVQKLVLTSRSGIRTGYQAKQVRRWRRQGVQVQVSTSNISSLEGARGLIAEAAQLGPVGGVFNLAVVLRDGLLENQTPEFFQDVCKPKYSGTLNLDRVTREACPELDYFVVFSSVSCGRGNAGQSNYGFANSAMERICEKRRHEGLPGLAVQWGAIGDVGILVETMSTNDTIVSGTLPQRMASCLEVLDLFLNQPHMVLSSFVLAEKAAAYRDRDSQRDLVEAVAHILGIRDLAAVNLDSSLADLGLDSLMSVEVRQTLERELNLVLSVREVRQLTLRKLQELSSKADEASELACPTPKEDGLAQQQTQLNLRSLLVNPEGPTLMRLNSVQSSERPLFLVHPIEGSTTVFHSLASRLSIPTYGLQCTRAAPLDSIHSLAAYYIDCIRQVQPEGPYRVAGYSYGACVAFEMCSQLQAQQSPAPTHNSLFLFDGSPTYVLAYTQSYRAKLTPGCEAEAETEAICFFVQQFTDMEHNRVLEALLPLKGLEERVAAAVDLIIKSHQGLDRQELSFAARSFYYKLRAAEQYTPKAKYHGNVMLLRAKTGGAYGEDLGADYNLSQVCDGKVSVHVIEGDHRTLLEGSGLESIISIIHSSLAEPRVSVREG
Induced myeloid leukemia cell differentiation protein Mcl-1, sequence (Q07820 whole entry): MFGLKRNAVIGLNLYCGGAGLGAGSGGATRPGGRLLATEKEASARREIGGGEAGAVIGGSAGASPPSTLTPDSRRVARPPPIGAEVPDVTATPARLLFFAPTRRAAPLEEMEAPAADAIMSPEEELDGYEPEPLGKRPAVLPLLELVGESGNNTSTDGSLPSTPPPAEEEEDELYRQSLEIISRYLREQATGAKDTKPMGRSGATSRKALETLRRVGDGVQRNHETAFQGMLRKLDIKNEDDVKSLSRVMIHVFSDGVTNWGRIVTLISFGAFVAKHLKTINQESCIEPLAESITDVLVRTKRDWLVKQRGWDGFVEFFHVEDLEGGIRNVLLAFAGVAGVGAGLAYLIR
Transitional endoplasmic reticulum ATPase (Homo sapiens, UniProt P55072, C522A), sequence (P55072 2-806 C522A limits assumed): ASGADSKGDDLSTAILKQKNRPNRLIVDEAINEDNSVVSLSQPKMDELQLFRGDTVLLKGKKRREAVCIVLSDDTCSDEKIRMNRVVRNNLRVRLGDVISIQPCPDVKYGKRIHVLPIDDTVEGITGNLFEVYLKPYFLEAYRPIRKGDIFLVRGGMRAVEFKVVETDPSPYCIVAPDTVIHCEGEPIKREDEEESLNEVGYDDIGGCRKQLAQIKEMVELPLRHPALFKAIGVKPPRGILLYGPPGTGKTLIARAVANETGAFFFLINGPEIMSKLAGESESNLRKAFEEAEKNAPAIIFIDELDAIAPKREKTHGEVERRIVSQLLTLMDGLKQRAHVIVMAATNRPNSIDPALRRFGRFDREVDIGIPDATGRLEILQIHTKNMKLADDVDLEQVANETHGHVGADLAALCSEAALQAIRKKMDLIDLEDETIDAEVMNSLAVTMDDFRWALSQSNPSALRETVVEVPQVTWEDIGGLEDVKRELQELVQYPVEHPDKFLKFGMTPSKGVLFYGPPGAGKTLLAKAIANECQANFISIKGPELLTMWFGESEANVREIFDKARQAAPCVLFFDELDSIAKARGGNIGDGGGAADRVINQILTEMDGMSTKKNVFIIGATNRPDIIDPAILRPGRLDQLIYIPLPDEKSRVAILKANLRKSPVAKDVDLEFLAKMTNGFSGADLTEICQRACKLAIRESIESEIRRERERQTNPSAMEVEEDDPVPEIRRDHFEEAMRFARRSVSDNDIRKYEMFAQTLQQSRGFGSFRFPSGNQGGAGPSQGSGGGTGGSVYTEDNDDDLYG
Protein-tyrosine kinase 2-beta, sequence (Q14289 whole entry): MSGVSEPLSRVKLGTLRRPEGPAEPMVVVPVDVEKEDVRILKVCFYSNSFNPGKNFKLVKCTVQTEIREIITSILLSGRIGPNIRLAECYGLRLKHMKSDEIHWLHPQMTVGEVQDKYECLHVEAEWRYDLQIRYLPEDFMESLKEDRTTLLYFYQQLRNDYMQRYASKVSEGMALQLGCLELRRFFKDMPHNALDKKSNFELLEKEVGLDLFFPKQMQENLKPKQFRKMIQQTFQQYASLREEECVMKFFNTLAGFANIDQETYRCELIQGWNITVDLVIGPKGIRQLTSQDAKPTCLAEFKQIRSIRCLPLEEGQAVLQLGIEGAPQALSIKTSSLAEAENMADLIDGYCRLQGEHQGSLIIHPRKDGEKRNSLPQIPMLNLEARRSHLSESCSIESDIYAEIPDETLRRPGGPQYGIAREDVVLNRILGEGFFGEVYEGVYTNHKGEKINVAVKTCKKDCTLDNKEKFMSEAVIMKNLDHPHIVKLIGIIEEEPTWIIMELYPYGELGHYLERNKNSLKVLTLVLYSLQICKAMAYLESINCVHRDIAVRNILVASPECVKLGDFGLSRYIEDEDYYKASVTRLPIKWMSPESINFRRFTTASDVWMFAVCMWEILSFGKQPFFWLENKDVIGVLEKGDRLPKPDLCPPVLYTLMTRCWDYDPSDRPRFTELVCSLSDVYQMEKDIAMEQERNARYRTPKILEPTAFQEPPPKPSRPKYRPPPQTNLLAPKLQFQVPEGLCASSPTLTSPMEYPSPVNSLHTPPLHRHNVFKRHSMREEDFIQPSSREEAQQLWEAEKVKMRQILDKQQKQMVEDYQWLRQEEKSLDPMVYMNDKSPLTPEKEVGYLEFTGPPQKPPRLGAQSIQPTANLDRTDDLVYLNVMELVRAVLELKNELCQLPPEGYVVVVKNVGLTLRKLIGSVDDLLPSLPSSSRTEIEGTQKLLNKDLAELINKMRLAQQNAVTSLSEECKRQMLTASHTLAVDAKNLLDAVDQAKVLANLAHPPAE
5-hydroxytryptamine receptor 1A, sequence (P08908 whole entry): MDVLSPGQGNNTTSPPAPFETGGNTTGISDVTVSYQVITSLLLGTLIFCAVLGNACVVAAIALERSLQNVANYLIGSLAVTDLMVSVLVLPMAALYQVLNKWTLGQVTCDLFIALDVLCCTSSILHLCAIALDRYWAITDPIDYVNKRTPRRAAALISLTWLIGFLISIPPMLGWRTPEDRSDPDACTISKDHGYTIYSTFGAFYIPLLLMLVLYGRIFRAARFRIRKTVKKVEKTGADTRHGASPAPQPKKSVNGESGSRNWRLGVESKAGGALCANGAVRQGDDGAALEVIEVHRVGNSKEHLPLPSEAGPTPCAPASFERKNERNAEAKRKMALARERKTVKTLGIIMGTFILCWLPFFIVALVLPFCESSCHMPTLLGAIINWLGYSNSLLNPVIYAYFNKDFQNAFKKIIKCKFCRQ

The EC50 is the concentration at which the effect is half-maximal. As for `CN(C)CCOC(=O)c1cn(Cc2ccccc2)c2ccccc12`, the concentration giving a half-maximal response (EC50) in assay [1] is > 50 µM (not active).
In general, IC50 refers to the midpoint of a concentration-inhibition curve. The AC50 is the midpoint of the concentration-response curve, whichever way the signal moves. `CCCOc1ccc(C(=O)C(CN2CCOCC2)c2ccccc2)cc1` (stereo not given): the IC50 in assay [2] is 0.909 µM (active). Besides, the AC50 in the assay with INS1 was > 60 µM (inactive).
On to `CCCNC(=O)c1ccc(-n2sc3ccccc3c2=O)cc1`, for which the IC50 in assay [3] was 7.48 µM (active).
Usually CC50 stands for the concentration giving 50% cytotoxicity. For the compound `CCOc1ccc2c(c1)OC(c1ccc(OC)cc1)(C(F)(F)F)NC2=O` (stereo not given), the IC50 in [4] is > 80 µM (inactive). For the same compound, in the assay on Vero, the CC50 is 13.7 µM (active).
As to `O=C1NC(=S)/C(=C\c2ccc(-c3ccccc3Cl)o2)S1`, the IC50 in [5] is 3.31 µM (active); in [9], 194 µM (active). For the same compound, the EC50 in assay [6] was 3.42 µM (active); in assay [7], > 300 µM (not active); in the assay on Streptococcus it was 28.2 µM (active); in [8] it was > 300 µM (not active); at Streptokinase A, 14.7 µM (active).
In the case of `COc1ccc(C2CC(c3cccs3)=NN2C(=O)CSc2nc(=O)n3ccc(C)cc3n2)cc1` (stereo not given), the IC50 on Fatty acid synthase [10] was 7.51 µM (active); on Fatty acid synthase [11], 8.11 µM (active); against Genome polyprotein, > 49.8 µM (not active).
On to `N#Cc1c(NC(=O)c2cc(-n3cnnc3)ccc2Cl)sc2c1CCCC2`, for which, in [12], the concentration giving a half-maximal response (EC50) was 12.7 µM (active).
In the case of `c1cc2c(cc1Cn1cnnn1)OCO2`, the IC50 in [13] is on record as > 100 µM (not active).
`N#Cc1ccc(Nc2nc(-c3ccc(C#N)cc3)cs2)cc1`: the IC50 in assay [14] and in assay [15] was > 50 µM (not active) each time.
Consider `O=C(Nc1cccc(-c2nc3ccccc3[nH]2)c1)c1cccc(NC(=O)c2ccco2)c1`, for which the IC50 in [16] was 5.03 µM (active); in assay [17] it was 2.5 µM (active); in assay [18], 68.5 µM (not active). Moreover, the half-maximal effective concentration (EC50) in assay [19] is 57.9 µM (active); in assay [20] it was 53.7 µM (active).
